Assay results reported in paper PMC5591184 (2017).

How the values were obtained:
[1] = system: AG3(T2AG3)3 (DNA, G4) AGGGTTAGGGTTAGGGTTAGGG; assay: UV-vis absorption titration; conditions: 100 mM NaCl; 10 mM Tris-HCl, 1 mM EDTA, pH 7.5, room temperature; 2 μM ZnTMPyP4
[2] = system: (G4T4G4)2 (DNA, G4) GGGGTTTTGGGG; assay: UV-vis absorption titration; conditions: 100 mM NaCl; 10 mM Tris-HCl, 1 mM EDTA, pH 7.5, room temperature; 2 μM ZnTMPyP4
(TG4T)4 (DNA, G4) TGGGGT = assay: UV-vis absorption titration; conditions: 100 mM KCl; 10 mM Tris-HCl, 1 mM EDTA, pH 7.5, room temperature; 2 μM ZnTMPyP4
[3] = system: T-G8 (DNA, G4) AGGGTTATGGTTAGGGTTAGGG; assay: triplet decay, laser flash photolysis; conditions: 100 mM NaCl; 10 mM Tris-HCl, 1 mM EDTA, pH 7.5, room temperature; 2 μM ZnTMPyP4; intercalation 63%
[4] = system: T-G10 (DNA, G4) AGGGTTAGGTTTAGGGTTAGGG; assay: triplet decay, laser flash photolysis; conditions: 100 mM NaCl; 10 mM Tris-HCl, 1 mM EDTA, pH 7.5, room temperature; 2 μM ZnTMPyP4; intercalation 53%

C[n+]1ccc(-c2c3nc(c(-c4cc[n+](C)cc4)c4ccc([n-]4)c(-c4cc[n+](C)cc4)c4nc(c(-c5cc[n+](C)cc5)c5ccc2[n-]5)C=C4)C=C3)cc1.O.[Zn+2]
binding constants [1]: 3.6e+06 M⁻¹
binding constants [2]: 100000 M⁻¹
binding constants ((TG4T)4 (DNA, G4) TGGGGT): 1e+06 M⁻¹
binding [3]: yes
binding [4]: yes
